Reference: patent US4097599A, “Triazoles” (Commonwealth Scientific and Industrial Research Organization, priority 1973, dated 1978)
Converted amounts (≈) assume the structure as drawn. Read-outs that look alike come from different tables or passages of the source.

Columns and labels:
[1] = tested on: rat liver monoamine oxidase; assay: Inhibition of rat liver monoamine oxidase; format: biochemical; details: for Relative inhibition of rat liver monoamine oxidase: relative to I50 value of BTS 27271 = 100
From the text: (§1) Other biochemical tests carried out with the compounds were the measurement of their effects on the uncoupling of oxidative phosphorylation and the inhibition of energy transfer in the mitochondrial respiration sequences. In the light of a known report on the action of certain acaricides as monoamine oxidase (MAO) inhibitors, the new structures were also examined in this test, and their activity compared to the reported MAO inhibition shown by the potent acaricide N-(2,4-dimethylphenyl)-N'-methyl formamidine (BTS 27271).
Purified intact rat liver mitochondria were disrupted by treating with triton X-100 (1% w/v) for 20 mins. at 0°-4°. The MAO activity was measured spectrophotometrically at 360 nm as described by Weissbach, H. et al. ^10. The activity of BTS 27271 was determined by this method and the enzyme inhibition for other compounds was expressed relative to its I50 value.

[2] = tested on: Boophilus microplus larvae; assay: Acaricide testing: toxicity to Boophilus microplus larvae; format: in vivo, Boophilus microplus (cattle tick); details: 7-14 day old larvae, packets, 24 hours
Experimental: (§2) The new compounds were examined in several biological tests. The acaricidal activity was measured against the larvae of the Australian cattle tick (Boophilus microplus). The specificity of interference of the designed compounds with mitochondrial oxidative processes was examined by the differential inhibition of growth of Saccharomyces cerevisiae with ethanol or glucose as substrates.
The determinations of mortalities were carried out in packets on 7-14 day old larvae of the cattle tick Boophilus microplus using the method described by Stone^1. Mortalities were counted 24 hours after the application of the compounds. The activities of DDT and BTS 27271 were also determined.

Tetranychus urticae = assay: Activity against the two-spotted spider mite on discs of dwarf bean leaf; format: in vivo; details: read-out: LC50, Tetranychus urticae
Experimental: Compounds of the invention were tested for their activity against the two-spotted spider mite, Tetranychus urticae. In this test, discs of dwarf bean leaf were treated with varying known amounts of the test compound. On each disc, 15 mites were placed and the sample kept under cover. Mortalities were determined after 24 hours and compared with […] controls.

yeast mitochondria = assay: Oxidative phosphorylation in yeast mitochondria (uncoupling, State 3 respiration); format: biochemical, yeast (Saccharomyces cerevisiae)
From the text: as §1
Yeast mitochondria were prepared as described by Watson, K. et al.^4. The effects of anti-metabolites on oxidative phosphorylation were determined in a polarograph cell at 30° in the medium described by Haslam, J. M. et al.^5. Substrates were either succinate (4.0 mM) or ethanol (0.3M). Other additions, where indicated, were Sigma ADP and 2:4-dinitrophenol (DNP).
(§3) State 3 and state 4 respiration rates were determined by the method of Chance, B. et al.^9. Percentage uncoupling in the presence of antimetabolities was calculated from the equation [formula] Percentage inhibition of coupled respiration was calculated from the equation [formula] Relative uncoupling and n-octylguanidine like effects are compared as the concentrations required to give 50% effects (I50).

Saccharomyces cerevisiae = assay: Inhibition of the growth of Saccharomyces cerevisiae on two substrates; format: cell-based, Saccharomyces cerevisiae strain L410; details: 24 hours
Experimental: as §2
Saccharamyces cerevisiae, strain L410, was grown aerobically at 28° in a salts medium containing 1% Difco yeast extract and 0.5% bacteriological peptone as described by Wallace, P. G. et al.^2 with either ethanol (1% w/v) or glucose (5% w/v) as carbon and energy sources. Cells were innoculated at a concentration of 10 μg of dry weight per ml and grown for 24 hours. Growth was measured as described by Clark-Walker et al.^3, and compared with control incubations.

[3] = tested on: oxidative phosphorylation in rat liver mitochondria; assay: Oxidative phosphorylation in rat liver mitochondria (uncoupling, State 3 respiration); format: biochemical; details: for EC50: concentration for 50% effect, read-out: Uncoupling activity of oxidative phosphorylation in rat liver mitochondria, I50
From the text: as §1
Rat liver mitochondria were prepared by the method described by Hogeboon^6 in a medium containing 0.25 M sucrose; 10 mM tris-HCl (pH 7.40); 0.5 mM EDTA and finally suspended in the same medium plus bovine-serum albumin (2 mg/ml). Oxidative phosphorylation was measured polarographically at 30°, as described by Estabrook, R. W. et al.^7. The incubation medium contained 0.25 M sucrose; 10 mM tris-HCl (pH 7.4); 5 mM K2 HPO4 (pH 7.4); 0.5 mM EDTA and bovine-serum albumin (2 mg/ml). DNP was added and control tests were carried out using n-octyl guanidine ^8 and either pyruvate or succinate as substrates.
as §3

[4] = ethanol substrate, read-out: Inhibition of the growth of Saccharomyces cerevisiae, ethanol, I50
[5] = glucose substrate, read-out: Inhibition of the growth of Saccharomyces cerevisiae, glucose, I50

Row | Relative inhibition of rat liver monoamine oxidase [1] | IC50 (Saccharomyces cerevisiae; [4]) [µM] | SMILES | LC50, toxicity to Boophilus microplus larvae [2] [%] | also measured
1 | 0 | – | FC(F)(F)c1nc[nH]n1 [Example 16, 3-trifluoromethyl-1,2,4-triazole] | 0.50 | –
2 | 2.5 | – | CCOc1ccc(-n2cnnc2C(F)(F)F)cc1 [Example 7, 4-(4-ethoxyphenyl)-3trifluoromethyl-1,2,4-triazole] | 0.61 | LC50 (Tetranychus urticae; discs of dwarf bean leaf, 24 hours): 1400 mg/L (≈ 5.44 mM)
3 | 2.5 | – | Cc1ccccc1-n1cnnc1C(F)(F)F [Example 4, 4-(2-methylphenyl)-3-trifluoromethyl-1,2,4-triazole] | 0.52 | –
4 | 0 | 100 | CC(C)(C)c1ccccc1-n1cnnc1C(F)(F)F [Example 5, 4-(2-t-butylphenyl)-3-trifluoromethyl-1,2,4-triazole] | 2.16 | IC50 (yeast mitochondria; yeast mitochondria, read-out: Half-maximal effect on State 3 respiration by yeast mitochondria): 160 µM
5 | 5 | – | COc1ccccc1-n1cnnc1C(F)(F)F [Example 6, 4-(2-methoxyphenyl)-3-trifluoromethyl-1,2,4-triazole] | 0.38 | –
6 | 200 | – | FC(F)(F)c1nnc(-c2ccc(Cl)cc2)n1-c1ccc(Cl)cc1 [Example 12, 3,4-bis(4-chlorophenyl)-5-trifluoromethyl-1,2,4-triazole] | > 1 | Inhibition of rat liver monoamine oxidase (result in words) [1]: potent inhibition
7 | 1 | – | CC(C)(C)c1ccc(-n2cnnc2C(F)(F)F)cc1 [Example 8, 4-(4-t-butylphenyl)-3-trifluoromethyl-1,2,4-triazole] | 1.8 | –
8 | 2 | – | Cc1nnc(C(F)(F)F)n1-c1ccccc1 [Example 11, 3-Methyl-4-phenyl-5-trifluoromethyl-1,2,4-triazole] | 0.50 | –
9 | 2 | 2500 | FC(F)(F)c1nncn1-c1ccc(Cl)cc1 [Example 3, 4-(4-chlorophenyl)-3-trifluoromethyl-1,2,4-triazole] | 0.60 | –
10 | 400 | – | FC(F)(F)c1ncn(-c2ccccc2)n1 [Example 13, 1-phenyl-3-trifluoromethyl-1,2,4-triazole] | 2.75 | Inhibition of rat liver monoamine oxidase (result in words) [1]: potent inhibition; Inhibition of rat liver monoamine oxidase compared with BTS 27271 ([1]; times that determined for BTS 27271 in a similar test): four times

Further lines, the compound ahead of its results:

Row | SMILES | Relative inhibition of rat liver monoamine oxidase [1] | IC50 (Saccharomyces cerevisiae; [4]) [µM] | LC50, toxicity to Boophilus microplus larvae [2] [%] | also measured
11 | FC(F)(F)c1n[nH]c(-c2ccc(Cl)c(Cl)c2)n1 [20(e), 3(5)-(3,4-dichlorophenyl)-5(3)-trifluoromethyl-1,2,4-triazole] | 42 | 10 | 0.38 | Inhibition of rat liver monoamine oxidase (result in words) [1]: potent inhibition; Uncoupling activity in yeast mitochondrial preparations (result in words) (yeast mitochondria): high uncoupling activity; IC50 (Saccharomyces cerevisiae; [5]): 300 µM; EC50 [3]: 2.3 µM; Uncoupling activity in rat liver mitochondrial preparations (result in words) [3]: high uncoupling activity
12 | Cc1ccc(-n2cnnc2C(F)(F)F)c(C)c1 [Example 9, 4-(2,4-Dimethylphenyl)-3-trifluoromethyl-1,2,4-triazole] | – | – | 1.55 | –
13 | FC(F)(F)c1n[nH]c(-c2ccccc2)n1 [20(c), 3(5)-phenyl-5(3)-trifluoromethyl-1,2,4-triazole] | 0 | 300 | 0.60 | Uncoupling activity in yeast mitochondrial preparations (result in words) (yeast mitochondria): high uncoupling activity; IC50 (Saccharomyces cerevisiae; [5]): 1000 µM; EC50 [3]: 80 µM; Uncoupling activity in rat liver mitochondrial preparations (result in words) [3]: high uncoupling activity
14 | Cc1cc(Cl)ccc1-n1cnnc1C(F)(F)F [Example 10, 4-(4-Chloro-2-methylphenyl)-3-trifluoromethyl-1,2,4-triazole] | – | – | 0.87 | –
15 | Clc1ccc(C(c2ccc(Cl)cc2)C(Cl)(Cl)Cl)cc1 [DDT, reference compound] | – | – | 0.78 | LC50 (Tetranychus urticae; 24 h): > 20000 mg/L
16 | CN=CNc1ccc(C)cc1C [BTS 27271, N-(2,4-dimethylphenyl)-N'-methyl formamidine, reference compound] | 100 | – | 0.2 | –
17 | FC(F)(F)c1n[nH]c(-c2ccc(Cl)cc2)n1 [20(d), 3(5)-(4-chlorophenyl)-5(3)-trifluoromethyl-1,2,4-triazole] | 27 | 30 | 0.45 | Inhibition of rat liver monoamine oxidase (result in words) [1]: potent inhibition; Uncoupling activity in yeast mitochondrial preparations (result in words) (yeast mitochondria): high uncoupling activity; IC50 (Saccharomyces cerevisiae; [5]): 300 µM; EC50 [3]: 12 µM; Uncoupling activity in rat liver mitochondrial preparations (result in words) [3]: high uncoupling activity
18 | FC(F)(F)c1nncn1-c1ccccc1 [Example 1, 4-Phenyl-3-trifluoromethyl-1,2,4-triazole] | 0 | 2500 | 0.62 | –
